Read-outs that look alike come from different tables or passages of the source.
Legend:
[1] = system: OVA-sensitized asthmatic rats; test: OVA-induced broncho-constriction (Penh) in asthmatic rats; assay type: in vivo, Brown Norway rats
Protocol: Subjects: Inbred Brown Norway male rats (4 weeks old) obtained from Harlan, USA, were used in this study. The Hebrew University Animal Welfare Committee approved all protocols.
In mode 1, all groups (5 rats in each) were treated and challenged as described above on day 14, 16, 18 and 20, and pulmonary function (Penh) was assessed on day 20 before and 5 min after challenge (EAR).
In mode 2, each group (10 rats in each) were treated and challenged from day 14, every other day, until day 45. Pulmonary function (Penh) was assessed on day 20 before and 5 min and 8 h after challenge, corresponding to early and late asthmatic reaction (EAR and LAR, respectively).
Assessment of broncho-constriction: Unrestrained conscious rats were placed in a whole-body plethysmograph (Buxco Electronics Inc., Troy, N.Y., USA) connected to a pneumotach (EMKA Technologies, Type 0000) at one end, and to a 10 ml bottle at the other end. The pneumotach was connected to a preamplifier (model MAX2270, Buxco Electronics). Analogue signals from the amplifier were converted to a digital signal by an AD card (LPM-16 National Instruments, Austin, Tex., USA). Broncho-constriction measures were expressed as the enhanced pause (Penh). Penh=(PEF/PIF)*((Te−Tr)/Tr), where PEF=Peak Expiratory Flow, PIF=Peak Inspiratory Flow, Te=Expiratory Time, Tr=Relaxation Time=time of the pressure decay to 36% of total box pressure during expiration.

[2] = system: rats with endotoxin-induced sepsis; test: Rat survival in LPS-induced endotoxinemia; assay type: in vivo; conditions: 100 mg/kg 3 hours before LPS (15 mg/kg i.p.) and 50 mg/kg with LPS; 48 hours
Protocol: Endotoxins administered to animals produce cardiovascular and multiorgan disorders that are similar to clinical sepsis. Thus, in the present study, a rat model was developed to test possible Lipid-conjugate effects on mediator production and mortality in endotoxin-induced Sepsis. Rats were intraperitoneally (i.p.) or intravenously (i.v.) injected with a Lipid-conjugate (Compound XXII, 100 mg/kg) dissolved in sterile saline or with sterile saline alone as placebo. After 3 hours, all rats received LPS (15 mg/kg i.p.; Escherichia coli 111:B44 LPS, Sigma, Deisenhofen, Germany). In rats that were pretreated with Compound XXII, LPS was injected together with a second dose of Compound XXII (50 mg/kg). The effect of Compound XXII on LPS injected rats was observed over a time period of 48 hours.

TNF-α and IL-6 in serum = test: Serum cytokine levels in septic rats (ELISA); assay type: in vivo, rat
Protocol: Blood samples were collected 1, 6, 12, and 24 hours after LPS injection to assess cytokine concentrations (FIG. 4.3A). […] Thereafter, the animals received LPS (7.5 mg/kg) i.p. alone or together with Compound XXII (150 mg/kg) or Compound XXV (50 mg/kg). Blood samples were collected after LPS injection. A group of rats that was not treated with Lipid-conjugates or LPS served as negative controls (FIG. 4.3B). All cytokines were measured in separated serum by ELISA Immunoassays (R&D Systems GmbH, Wiesbaden, Germany) according to the instructions of the manufacturer.
In Experiment 4.5, sepsis was induced by LPS ([…] endotoxin, 5 mg/kg) and lipoteichoic acid (LTA, […] endotoxin, 5 mg/kg; Staph. aureus LTA, Sigma, Germany).

mice = test: Long-term (30 weeks) toxicity test; assay type: in vivo
Protocol: For the long-term toxicity test a group of 6 mice received an i.p injection of 100 mg Lipid-conjugate (Compound XXII)/kg body weight 3 times a week for 30 weeks (e.g., 180 mg total to a mouse weighing 20 g). Toxicity was evaluated as for Table 8.1. The results of the long-term toxicity test are depicted in Table 8.2.

[3] = system: cysteinyl leukotrienes (LTC4, LTD4 and LTE4); test: Cysteinyl leukotriene level in BAL of OVA-induced asthmatic rats
[4] = system: TNFα production by BAL macrophages; test: TNFα production by macrophages from BAL of OVA-sensitized asthmatic rats; conditions: compared with Naive and Dx-treated rats; p<0.001 vs Asthmatic
Punta Toro virus = assay type: cell-based, strain Adames
[5] = system: Madin Darby canine kidney (MDCK) cells; test: Cytotoxicity assay, visual observation, uninfected cells; assay type: cell-based; conditions: high concentration
Protocol: Uninfected cells were treated with each concentration of test compound in duplicate and run in parallel with the infected, treated wells in the CPE inhibition tests described above. The toxicity control cells (uninfected and treated) were examined under a light microscope for changes in cell appearance compared to control cells (uninfected, untreated) on the same plate as described above. The 50% cell inhibitory (cytotoxic) concentrations (IC50) were calculated by regression analysis.

[6] = system: Madin Darby canine kidney (MDCK) cells; assay type: cell-based; conditions: high concentration, Neutral Red Uptake Assay
Human RBC = test: Prevention of hemolysis of human red blood cells; assay type: cell-based; conditions: 20 min, 10 μM Lipid-conjugate, None = 1.000
Protocol: Hemolysis, the breakdown of red blood cells (RBC), may be either a primary disease in itself, or a syndrome associated with another disease or physiological insult. In order to determine the effect of Lipid-conjugates on hemolysis, red blood cells were incubated in the presence of known membrane destabilizing agents and the release of hemoglobulin into the extracellular medium was detected.
Human RBC were washed in saline and suspended in Hanks buffer (pH 7.4). Hemolysis was induced in the absence or presence of 10 μM Lipid-conjugates by treatment with either 5 U/ml streptolysin O (SLO), 25 U/ml streptolysin S (SLS), or 5 μg/ml lysophosphatidylcholine (lyso-PC) for 20 min. The cell membranes were spun and the hemoglobin content in the supernatant was determined by measuring the O.D. at 540 nm (Table 5.1).

[7] = 100 mg/kg i.p. 3 times/week for 30 weeks
[8] = listed as Influenza A (H1N1 strain)
[9] = listed as Influenza A (H3N2 strain)

## dipalmitoyl-PE conjugated to HA [Compound XXII]
[1]; aerosol inhalation, 5 min after challenge, compared with Naïve or Dx-treated groups, p<0.01 vs Asthmatic
  broncho-constriction (percent change of Penh), early asthmatic reaction (EAR): no significant difference
[1]; aerosol inhalation, 8 h after challenge, compared with Naïve or Dx-treated groups, p<0.01 vs Asthmatic
  broncho-constriction (percent change of Penh), late asthmatic reaction (LAR): no significant difference
[1]; already asthmatic rats, nebulized 1 mg/ml for 5 minutes, 30 minutes before challenge
  allergen-induced broncho-constriction (Penh), inhaled before OVA challenge: effective in preventing allergen-induced broncho-constriction
[1]; asthmatic rats, nebulized 1 mg/ml for 5 minutes, thirty minutes after challenge
  broncho-constriction (Penh), inhaled after OVA challenge: reverse broncho-constriction
[2]
  mortality rate among septic rats: markedly reduced the mortality rate
TNF-α and IL-6 in serum; 150 mg/kg, 5 mg/kg i.p. LPS, or LPS + 5 mg/kg i.p. LTA, 1 and 6 hours
  cytokine production induced by LPS or LPS + LTA: effective in suppressing cytokine production
TNF-α and IL-6 in serum; i.v. at the same time as LPS i.p., versus i.p. pretreatment
  endotoxin-induced cytokine production: suppressed equally well
mice; 100 mg/kg i.p. 3 times a week for 30 weeks
  mortality: no incidents of mortality
mice; 100 mg/kg i.p. 3 times a week for 30 weeks, compared to control, untreated mice
  changes in body weight, red or white blood cell count, or hematocrit: no significant changes
mice; [7]
  Body weight (g) Final: 39.0 ± 2.7 g
  Hematocrit %: 43.4 ± 4.9%
  RBC × 10^6: 11.7 ± 0.7 × 10^6
  WBC × 10^3: 8.1 ± 15 × 10^3
[3]; SC administration, compared with Naive rats
  CysLT levels in BAL: no significant difference
[3]; aerosol inhalation, compared with Naïve rats, P<0.01 vs Asthmatic
  CysLT levels in BAL: no significant difference
[4]
  TNFα production, BAL macrophages: no significant differences

## dipalmitoyl-phosphatidyl-ethanolamine conjugated to heparin [Compound XXIV]
Punta Toro virus
  SI (IC50/EC50): 0
Punta Toro virus; low concentrations, Visual Observation Assay, Punta Toro A
  EC50: >100 µg/mL
Punta Toro virus; lower range of doses, at the concentrations tested
  virus inhibitory effect against Punta Toro virus: did not display a virus inhibitory effect
[5]; [8]
  IC50: 35 µg/mL
[5]; [9]
  IC50: 100 µg/mL
[5]; listed as Influenza B
  IC50: 90 µg/mL
[6]; [8]
  IC50: 64 µg/mL
[6]; [9]
  IC50: 110 µg/mL
[6]; listed as Influenza B
  IC50: 220 µg/mL
Human RBC; 5 μg/ml lysophosphatidylcholine
  HEMOLYSIS (O.D. AT 540 nm), Lyso-PC: 0.002 O.D.
Human RBC; 5 U/ml streptolysin O
  HEMOLYSIS (O.D. AT 540 nm), SLO: 0.002 O.D.
Human RBC; 25 U/ml streptolysin S
  HEMOLYSIS (O.D. AT 540 nm), SLS: 1.100 O.D.

Reference: patent US7504384B2 (priority 2000, dated 2009)
